Results on 30 molecules are retold here after ChEMBL document CHEMBL1914304 (J Med Chem, 2011).

One data set concerns HepG2. The data set is described as follows: Cytotoxicity against human HepG2 cells after 72 hrs by luminescence assay. Type of data set: cell-based. As to conditions: hepg2, 72 h.
The test system of a further data set is Raji. The data set is described as follows: Cytotoxicity against human Raji cells after 72 hrs by luminescence assay. The data set is classed as cell-based.
The next data set relates to BJ. The data set is described as follows: Cytotoxicity against human BJ cells after 72 hrs by luminescence assay. Type of data set: cell-based.
The next data set deals with HEK293. As to the kind of experiment: Cytotoxicity against human HEK293 cells after 72 hrs by luminescence assay. As to conditions: hek293, 72 h. Type of data set: cell-based.
Data set [1] is described as follows: Selectivity ratio of EC50 for human HepG2 cells to EC50 for Plasmodium falciparum.

The structures appear in SMILES notation.

In the case of `COc1cccc(N2CCN(CC(O)COc3ccc(F)cc3C(=O)CCc3ccccc3)CC2)c1.Cl` (racemic), the Activity result in the data set with HepG2, with Raji, in the data set with BJ and in the data set on HEK293 was “Non-toxic” each time. For the same molecule, the selectivity ratio in data set [1] was more than 10.

Take `COc1ccc(N2CCN(CC(O)COc3ccc(F)cc3C(=O)CCc3ccccc3)CC2)cc1.Cl` (racemic): the Activity entry in the data set on HepG2, with Raji, in the data set on BJ and in the data set on HEK293 was “Non-toxic” each time. The selectivity ratio in data set [1] is more than 10.

Take `Cl.O=C(CCc1ccccc1)c1cc(F)ccc1OCC(O)CN1CCN(c2ccccc2Cl)CC1` (racemic): the Activity result with HepG2, in the data set with Raji, in the data set on BJ and in the data set with HEK293 was “Non-toxic” throughout. Besides, the selectivity ratio in data set [1] was more than 10.

For the molecule `Cl.O=C(CCc1ccccc1)c1cc(F)ccc1OCC(O)CN1CCN(c2ccc(Cl)c(Cl)c2)CC1` (racemic), the Activity entry with HepG2, in the data set with Raji, in the data set with BJ and in the data set on HEK293 was “Non-toxic” throughout. Besides, the selectivity ratio in data set [1] was more than 10.

Regarding `Cl.O=C(CCc1ccccc1)c1cc(F)ccc1OCC(O)CN1CCN(c2ccccc2F)CC1` (racemic), the Activity entry in the data set with HepG2, in the data set on Raji, in the data set on BJ and with HEK293 was “Non-toxic” in each case. In addition, the selectivity ratio in data set [1] was more than 10.

`Cl.O=C(CCc1ccccc1)c1cc(F)ccc1OCC(O)CN1CCN(c2ccc(F)cc2)CC1` (racemic): the Activity entry with HepG2, with Raji, with BJ and in the data set on HEK293 was “Non-toxic” each time. In addition, the selectivity ratio in data set [1] was more than 10.

Regarding `Cl.O=C(CCc1ccccc1)c1cc(F)ccc1OCC(O)CN1CCN(c2ccc([N+](=O)[O-])cc2)CC1` (racemic), the Activity entry in the data set on HepG2, with Raji, with BJ and with HEK293 was “Non-toxic” throughout. Further, the selectivity ratio in data set [1] is more than 10.

As to `Cl.Nc1ccc(N2CCN(CC(O)COc3ccc(F)cc3C(=O)CCc3ccccc3)CC2)cc1` (racemic), the Activity result in the data set on HepG2, in the data set on Raji, in the data set on BJ and in the data set with HEK293 was “Non-toxic” in each case. For the same molecule, the selectivity ratio in data set [1] is more than 10.

For `Cl.O=C(CCc1ccccc1)c1cc(F)ccc1OCC(O)CN1CCN(c2ccc(O)cc2)CC1` (racemic), the Activity entry in the data set on HepG2, in the data set on Raji, in the data set with BJ and in the data set with HEK293 was “Non-toxic” in each case. Also, the selectivity ratio in data set [1] is more than 10.

For `Cl.O=C(CCc1ccccc1)c1cc(F)ccc1OCC(O)CN1CCN(c2ccc(C(F)(F)F)cc2)CC1` (racemic), the Activity entry with HepG2, with Raji, in the data set on BJ and in the data set on HEK293 was “Non-toxic” in each case. In addition, the selectivity ratio in data set [1] was more than 10.

Regarding `Cl.O=C(CCc1ccccc1)c1cc(F)ccc1OCC(O)CN1CCN(C(=O)c2ccccc2)CC1` (racemic), the Activity entry in the data set with HepG2, in the data set with Raji, in the data set on BJ and in the data set with HEK293 was “Non-toxic” throughout. For the same molecule, in data set [1], the selectivity ratio was more than 10.

Turning to `CN1CCN(CC(O)COc2ccc(F)cc2C(=O)CCc2ccccc2)CC1.Cl` (racemic), the Activity entry with HepG2, in the data set on Raji, in the data set on BJ and in the data set with HEK293 was “Non-toxic” throughout. The selectivity ratio in data set [1] was more than 10.

On to `CCN1CCN(CC(O)COc2ccc(F)cc2C(=O)CCc2ccccc2)CC1.Cl` (racemic), for which the Activity result with HepG2, in the data set with Raji, with BJ and in the data set on HEK293 was “Non-toxic” in each case. In data set [1], the selectivity ratio is more than 10.

As to `Cl.O=C(CCc1ccc(F)cc1)c1cc(F)ccc1OCC(O)CN1CCCCC1` (racemic), the Activity entry with HepG2, in the data set on Raji, with BJ and in the data set with HEK293 was “Non-toxic” throughout. The selectivity ratio in data set [1] was more than 10.

For the molecule `Cl.O=C(CCc1ccc(F)cc1)c1cc(F)ccc1OCC(O)CN1CCC(c2ccccc2)CC1` (racemic), the Activity entry with HepG2, in the data set with Raji, in the data set with BJ and in the data set with HEK293 was “Non-toxic” throughout. In data set [1], the selectivity ratio is more than 10.

Consider `Cl.O=C(CCc1ccc(F)cc1)c1cc(F)ccc1OCC(O)CN1CCC(Cc2ccccc2)CC1` (racemic), for which the Activity result in the data set with HepG2, in the data set on Raji, in the data set on BJ and in the data set on HEK293 was “Non-toxic” throughout. Besides, the selectivity ratio in data set [1] is more than 10.

As for `Cl.O=C(CCc1ccc(F)cc1)c1cc(F)ccc1OCC(O)CN1CCC(c2ccc(Cl)cc2)CC1` (racemic), the Activity result in the data set with HepG2, in the data set with Raji, in the data set on BJ and in the data set with HEK293 was “Non-toxic” in each case. In data set [1], the selectivity ratio is more than 10.

`Cl.O=C(CCc1ccc(F)cc1)c1cc(F)ccc1OCC(O)CN1CCC(O)CC1` (racemic): the Activity entry with HepG2, in the data set on Raji, in the data set with BJ and with HEK293 was “Non-toxic” throughout. The selectivity ratio in data set [1] is more than 10.

On to `Cl.O=C(CCc1ccc(F)cc1)c1cc(F)ccc1OCC(O)CN1CCC(O)(Cc2ccccc2)CC1` (racemic), for which the Activity result with HepG2, with Raji, in the data set on BJ and in the data set with HEK293 was “Non-toxic” throughout. Besides, the selectivity ratio in data set [1] was more than 10.

`Cl.O=C(CCc1ccc(F)cc1)c1cc(F)ccc1OCC(O)CN1CCN(c2ccccc2)CC1` (racemic): the Activity result in the data set on HepG2, in the data set with Raji, in the data set with BJ and with HEK293 was “Non-toxic” each time. The selectivity ratio in data set [1] is more than 10.

Turning to `Cl.O=C(CCc1ccc(F)cc1)c1cc(F)ccc1OCC(O)CN1CCN(Cc2ccccc2)CC1` (racemic), the Activity entry with HepG2, with Raji, in the data set on BJ and with HEK293 was “Non-toxic” each time. In addition, the selectivity ratio in data set [1] is more than 10.

Consider `Cc1ccccc1N1CCN(CC(O)COc2ccc(F)cc2C(=O)CCc2ccc(F)cc2)CC1.Cl` (racemic), for which the Activity entry in the data set with HepG2, with Raji, in the data set with BJ and in the data set with HEK293 was “Non-toxic” throughout. Also, in data set [1], the selectivity ratio is more than 10.

For `Cc1cccc(N2CCN(CC(O)COc3ccc(F)cc3C(=O)CCc3ccc(F)cc3)CC2)c1.Cl` (racemic), the Activity entry in the data set on HepG2, with Raji, in the data set with BJ and in the data set on HEK293 was “Non-toxic” each time. For the same molecule, in data set [1], the selectivity ratio was more than 10.

On to `Cc1ccc(N2CCN(CC(O)COc3ccc(F)cc3C(=O)CCc3ccc(F)cc3)CC2)cc1.Cl` (racemic), for which the Activity result in the data set on HepG2, in the data set with Raji, in the data set with BJ and in the data set with HEK293 was “Non-toxic” throughout. The selectivity ratio in data set [1] is more than 10.

Turning to `COc1ccccc1N1CCN(CC(O)COc2ccc(F)cc2C(=O)CCc2ccc(F)cc2)CC1.Cl` (racemic), the Activity entry in the data set on HepG2, in the data set on Raji, with BJ and with HEK293 was “Non-toxic” each time. Also, in data set [1], the selectivity ratio was more than 10.

Consider `COc1cccc(N2CCN(CC(O)COc3ccc(F)cc3C(=O)CCc3ccc(F)cc3)CC2)c1.Cl` (racemic), for which the Activity entry in the data set with HepG2, in the data set on Raji, in the data set on BJ and in the data set on HEK293 was “Non-toxic” throughout. Also, the selectivity ratio in data set [1] was more than 10.

For the molecule `COc1ccc(N2CCN(CC(O)COc3ccc(F)cc3C(=O)CCc3ccc(F)cc3)CC2)cc1.Cl` (racemic), the Activity entry in the data set on HepG2, in the data set with Raji, in the data set with BJ and with HEK293 was “Non-toxic” each time. In addition, the selectivity ratio in data set [1] was more than 10.

For `Cl.O=C(CCc1ccc(F)cc1)c1cc(F)ccc1OCC(O)CN1CCN(c2ccccc2Cl)CC1` (racemic), the Activity entry in the data set on HepG2, with Raji, in the data set on BJ and in the data set with HEK293 was “Non-toxic” in each case. In addition, in data set [1], the selectivity ratio is more than 10.

Regarding `Cl.O=C(CCc1ccc(F)cc1)c1cc(F)ccc1OCC(O)CN1CCN(c2ccc(Cl)cc2)CC1` (racemic), the Activity entry in the data set on HepG2, in the data set on Raji, in the data set on BJ and in the data set with HEK293 was “Non-toxic” throughout. In addition, the selectivity ratio in data set [1] is more than 10.

On to `Cl.O=C(CCc1ccccc1)c1cc(F)ccc1OCC(O)CN1CC[N+]([O-])(c2ccc(Cl)cc2)CC1` (racemic), for which the Activity entry with HepG2, with Raji, with BJ and in the data set with HEK293 was “Non-toxic” each time. Moreover, in data set [1], the selectivity ratio is more than 10.
